The source of these data is a melting point compilation (Tetko et al.; mined from patent text by program, amines drawn as free bases though some values may be those of a salt).

Structures are written as SMILES. Some results are limits rather than exact numbers.

In turn, `Nc1nc2c(s1)CCN(CC=Cc1ccc(OCc3ccccc3)cc1)CC2` registered a melting point of 135 to 140 °C. The value for `CNc1nc(Nc2ccc(Cl)c(Cl)c2)ncc1NS(C)(=O)=O` was 263 to 266 °C; that for `CC1C=CCCC1C(O)C(N)=O` (configuration not stated) was 149 to 151 °C; that for `CCCN(CCC)c1ccc2c(c1)O/C(=C1/Oc3cc(N(CCC)CCC)ccc3C1=O)C2=O` was 283 °C. The value for `CCSc1nn2ccccc2c1C(C)=O` was 84 to 85 °C; that for `CC(C)(C)COc1cccc(C[C@@H](NC(=O)c2cccc3c2C=CCCC3)[C@@H](O)c2cccc(Cl)c2)c1` (racemic) was 128 to 129 °C; that for `COC(=O)/C(=C/C=C/c1cc2cc(Cl)ccc2[nH]1)OC` was 166 to 168 °C.

`N#Cc1ccc(-c2cccc(C=O)c2)cc1` had a melting point of 122 to 123 °C. The compound `COc1c(N2CC(C)C(NC3CC3)C(C)C2)c(F)c(N)c2c(=O)c(C(=O)O)cn(C3CC3)c12` (configuration not stated) yielded a melting point of 248 °C. `CCNc1nc2cccc(C(=O)O)c2n1Cc1ccc(-c2ccccc2-c2nnn[nH]2)cc1` displayed a melting point of 240 to 242 °C. Take `COc1cn(-c2ccc(-n3cccn3)cc2F)nc(C(C)=O)c1=O`: the melting point was in the range of 159 to 161 °C.

`COc1ccc(S(=O)(=O)N2CCc3cccc(-c4ccccn4)c32)cc1` registered a melting point of 195 to 197 °C.

`c1ccc2c(c1)nc(-c1ccc3c(c1)OCO3)n2CCC1CCCCC1` registered a melting point of 110 to 111 °C. The value for `CN(C)S(=O)(=O)n1c(C(F)(F)F)nc2c(Br)cc(C(F)(F)F)cc21` was 147 °C; that for `C[C@@H]1Cc2ccsc2[C@H](C)N1CCNC(=O)c1ccc(F)cc1` (relative stereo) was 110 to 114 °C; that for `CCCN1C(=O)N(c2ccc([N+](=O)[O-])c(C(F)(F)F)c2)C(=O)C1(C)C` was 102 °C.

`CCCn1c(=O)c([N+](=O)[O-])c2n(c1=O)CCS2` showed a melting point of 189 to 191 °C. The value for `CCOC(=O)c1ccc(-c2[nH]nc3c2C(=O)c2c(NC(=O)NN4CCN(C)CC4)cccc2-3)s1` was 249 °C. Turning to `OCC1Cc2c([nH]c3ccccc23)CN1C(=S)S` (configuration not stated), the melting point was in the range of 225 to 227 °C.

In turn, `S=C(Cl)c1cc(C(Cl)(Cl)Cl)c(Cl)cc1Cl` registered a melting point of 79 to 81 °C. In the case of `COC(=O)C1=C(C)NC(CC(=O)N2CCN(C3CC4CC(=O)CC4C3)CC2)=C(C(=O)OC)C1c1c(Cl)cccc1Cl` (configuration not stated), the melting point fell in the range of 145 to 155 °C. The value for `CC(C)N(CCN1C(=O)/C(=N/NC(N)=O)c2cc(Br)ccc21)C(C)C` was 149 to 153 °C; that for `CC(C)(CO)CNc1cc(C(c2cc(F)ccc2F)S(=O)(=O)c2ccc(Cl)cc2)c(Cl)cn1` (configuration not stated) was 176 to 178 °C. The value for `N#Cc1cc(N)ccc1OC1CCCCC1` was 59 °C; that for `CCC1(Cc2ncn(C(c3ccccc3)(c3ccccc3)c3ccccc3)c2C)CCc2c(C)c3ccccc3n2C1=O` (configuration not stated) was 83 to 98 °C.

Regarding `O=C(c1cccc(F)c1)N1Cc2c(-c3ccc(F)cc3)ncn2-c2ccccc21`, the melting point lay in the range of 176 to 177 °C. The value for `NC(=S)c1cn(C2OC(CO)C(O)C2O)nn1` (configuration not stated) was 152 to 154 °C; that for `COc1ccccc1OCCCOS(N)(=O)=O` was 80 to 83 °C; that for `CCCc1c(OCCCCCOc2ccc3c(c2CCC)OC(C(=O)O)CC3)ccc(C(C)=O)c1O` (configuration not stated) was 66 to 68 °C. The value for `Nc1ccc(Oc2ccc(C(=O)O)c(O)c2)cc1` was 187 to 188 °C; that for `CCSc1nc2c(cc1F)c(=O)c(C(=O)O)cn2CC` was 219 to 221 °C; that for `O=S(=O)(Nc1ccc(Cl)c(Cl)c1)c1cc(S(=O)(=O)Nc2ccc(Cl)c(Cl)c2)c2cc(O)ccc2c1` was 158 to 160 °C.

`Cc1cc(-c2csc(-c3cccc(C(=O)O)c3)n2)c(C)s1` gave a melting point of 155 to 156 °C. The value for `O=C1CCC(=O)N1SCc1ccc([N+](=O)[O-])cc1` was 146 to 148 °C.

`CCCCCCNC(=O)Oc1ccc2c(c1)CCCN2`: the melting point turned out to be 100 °C. The compound `O=c1ccc(C(F)(F)F)cn1Cc1c(Cl)cccc1Cl` displayed a melting point of 74 to 76 °C. Consider `CCOC(=O)C(O[Si](C)(C)C)C(O[Si](C)(C)C)c1cc2c(cc1[N+](=O)[O-])OCO2` (configuration not stated), for which the melting point was 73.6 to 79.1 °C. `CCOC(=O)Cc1ncn(C(c2ccccc2)(c2ccccc2)c2ccccc2)n1` showed a melting point of 117 to 119 °C. The value for `CNCCc1c[nH]c2ccc3c(=O)[nH]ccc3c12` was 160 °C; that for `C[C@]12Cc3ccccc3[C@H]1Nc1ccccc12` (relative stereo) was 72 °C; that for `Cc1c(Cl)ccc(C(=O)O)c1Cl` was 173 to 175 °C. `Cc1cccc(NC(=O)NC2CN(C(=O)C(C)(C)C)c3ccccc3N(CC(=O)OCc3ccccc3)C2=O)c1` (configuration not stated): the melting point fell in the range of 136 to 140 °C. Under `O=C1CCc2c(OCCCl)cccc21` stands 56 to 58 °C. `C/C(=C\c1ccc(NC(=O)c2cc([Si](C)(C)C)cc([Si](C)(C)C)c2)cc1F)C(=O)O` showed a melting point of 213 to 215 °C. The value for `CCN(c1nc(C)cc(C(=O)N2CCOCC2)n1)c1ccc(C(C)C)cc1Br` was 145 °C; that for `CC1CCN(c2cc3nc(C(C)(C)C)sc3cc2N)CC1` was 146 to 148 °C.

Consider `Cc1[nH]c(=O)c2cc3nc(-c4ccncc4)[nH]c3cc2c1C`, for which the melting point is > 300 °C. Under `CCCCCCNC(=O)Nc1cccc2c1C1(COc3cc4c(cc31)OCCO4)C(=O)N2C` (configuration not stated) stands 154 to 155 °C. Under `O=C(O)COc1ccc(SCc2cc(-c3ccc(Cl)cc3)on2)c2c1CCCO2` stands 131 to 133 °C; under `CCOC(=O)C(Cc1cccc2ccccc12)(Cc1cccc2ccccc12)C(=O)OCC`, 79 to 81 °C; under `CCCN(CCc1ccccc1)CCc1cccc2[nH]c(=S)[nH]c12`, 198 to 201 °C.

In turn, `Cc1c(Br)ccc(OC(=O)C(C)(C)C)c1C(=O)O` registered a melting point of 144 to 145 °C. Compound `CCOC(=O)C=Cc1ccc(CCNS(=O)(=O)C=Cc2ccc(Cl)cc2)cc1` yielded a melting point of 131 to 132 °C. Under `CCN(Cc1cc(-c2ncco2)ccc1-c1ccccc1S(=O)(=O)Nc1onc(C)c1C)CC(F)(F)F` stands 55 to 65 °C. The value for `CCCn1nc2c(N)nc3ncccc3c2c1CC(C)C` was 257 to 260 °C; that for `CCO[C@@H](Cc1ccc(OCCc2nc(-c3ccc(C(F)(F)F)cc3)oc2C)c2ccccc12)C(=O)O` was 153 to 155 °C. Under `CCCCOCCOc1ccc(-c2ccc3c(c2)C=C(C(=O)Nc2ccc(SCc4nncn4CCC)c(C)c2)CCN3CC(C)C)cc1` stands 104 to 107 °C; under `CC(=O)C(=NNc1ccc([N+](=O)[O-])cc1)Sc1ccc(Cl)cc1`, 181 to 183 °C.

For `CCc1nn2c(N)c3c(nc2c1S(=O)(=O)c1ccccc1)CCC3`, the melting point was > 230 °C. Under `c1ccc(P(c2ccccc2)c2c3ccccc3cc3ccccc23)cc1` stands 204 °C. The value for `Nc1ncnc2c1c(-c1cccc(O)c1)nn2Cc1oc2ccccc2c(=O)c1-c1cccc(F)c1` was 280 to 283 °C; that for `CC(=O)OCC1OC(n2ccc(=O)[nH]c2=O)C(OC(C)=O)C1OC(C)=O` (configuration not stated) was 129 to 130 °C; that for `COc1cc(Oc2cccc(C)c2)nc(C(=O)Nc2ccc(C)cc2)c1` was 110 to 114 °C. As to `Cc1ccc(C(O)c2ccc3noc(-c4cccc(Cl)c4)c3c2)cc1` (configuration not stated), the melting point is 225 °C. `CC1=NC(=NO)SC1(C)C` yielded a melting point of 151 to 153 °C. Compound `N#Cc1c(F)c(F)cc(C(=O)O)c1F` showed a melting point of 187 to 190 °C.

In the case of `COc1ccc(C2(C#Cc3cc(C#N)cc(C#N)c3)CCC(=O)CC2)cc1OC1CCCC1`, the melting point came out at 148 °C. Under `COc1cc2c(=O)c(Cc3cccnc3)cn3c4ccc(Br)cc4c(c1)c23` stands 150 to 151 °C; under `Cc1nc(C(=O)NCCO[N+](=O)[O-])c(C)s1`, 114 to 116 °C; under `COC1CCc2c(Nc3ccc(C#N)cc3)ncnc21` (configuration not stated), 167 to 169 °C. The value for `CC1(C(O)(Cc2ccccc2Cl)Cn2cncn2)CCCCC1` (configuration not stated) was 105 °C; that for `C[C@H](NC(=O)COCCNC(=O)C12CC3CC(CC(C3)C1)C2)C(=O)N[C@H](CCC(=O)O)C(N)=O` was 84 to 86 °C; that for `O=C(O)CCOc1cccc2c1Cc1sc(S(=O)(=O)CCC(c3ccccc3)c3ccccc3)nc1-2` was 215 to 218 °C.

As to `COC(=O)c1ccc(-c2nc(-c3ccc(C(F)(F)F)cc3)no2)cc1`, the melting point was in the range of 177 to 178 °C. Under `CCCCCCCCCCCCOC(=O)NS(=O)(=O)Cl` stands 62 to 63 °C; under `Cc1ccc(C(=O)CBr)o1`, 60 to 63 °C; under `O=C1CC[C@]2(C[C@H]3CC[C@@H]2C3)C(=O)N1` (racemic), 154 to 156 °C.

The compound `C[C@@H]1CN(C(=O)[C@@](C)(O)C(F)(F)F)[C@@H](C)CN1S(=O)(=O)c1ccc(F)cc1` yielded a melting point of 174 to 175 °C.

For `CC(CNC12CC3CC(CC(C3)C1)C2)N1CCN(c2ccccn2)CC1` (configuration not stated), the melting point fell in the range of 67 to 68 °C. Under `N#Cc1cc2c(cc1O)OCC21C(=O)N(CC2CCCO2)c2ccccc21` (configuration not stated) stands 218 to 221 °C; under `N#Cc1ccc(Oc2ccccc2NC(=O)c2cccc([N+](=O)[O-])c2)cc1C#N`, 176 to 178 °C. Under `O=C(CCc1ccccc1)c1cccnc1Oc1ccc(F)cc1` stands 82 to 83 °C.

Take `CCOC(=O)c1cc2c(Cl)ccc3c2n1CCCC=C3`: the melting point was 89 to 90 °C. Turning to `CC(=O)OC[C@@H]1CCCN1C(c1ccccc1)(c1ccccc1)c1ccccc1Cl`, the melting point was 102 to 104 °C.

The compound `CCOC(=O)c1cc(-n2c(=O)c3c(n(C)c2=O)CCCC3)ccc1Cl` came in with a melting point of 108 to 112 °C. Under `COc1ccc(-c2cc3ccc(OC)cc3[nH]2)cc1` stands 228 to 230 °C; under `CC(=O)Nc1nc(-c2cccc3ccccc23)co1`, 188 to 190 °C.
